The source of these data is patent US20040067167A1, “Methods and apparatus for optophoretic diagnosis of cells and particles” (Genoptix, Inc., priority 2002, published 2004).

For one test, the system named is HL60 cells. As to the kind of experiment: Time-of-flight (TOF) optophoretic testing of HL60 cells treated with DMSO. It counts as cell-based. Particulars: 1% DMSO, after 40 hours of treatment, compared to non-treated HL60 cells (FIGS. 44 and 45). The source says:
The system includes multiple, preferably three, detecting positions, 31, 32 and 33. The detecting positions 31, 32, 33, may be associated with detection of times, e.g., t1, t2, t3. The times may be absolute, relative or elapsed. The two outermost detecting positions, i.e., 31 and 33 in this example, are separated by a distance L. A representative length L when detecting biological particles would be substantially 200 microns or less. The difference between the first two detecting positions t1, t2, define a time interval T1. T1 may also be associated with a first detection zone corresponding to the motion of the particle 36 through the zone T1. The second and third detecting positions t2, t3, define a second detection zone T2. The second detection zone also corresponds to the time difference between t2, t3. In one preferred embodiment, the distance between t2 t3 is equal to the distance between t1 t2. In operation, the cell or particle 36 flows from the inlet 22 through the channel 20 through the outlet 24. For biological detection purposes, representative particle speeds are from substantially 50 to substantially 200 microns per second. As the cell or particle 36 flows through the first detection zone T1, the time-of-flight through that zone is measured, that is the time it takes for the cell or particle 36 to move from position t1 to t2. An optical gradient 38 is disposed within zone T2. […]

A further test deals with T cells. As to the kind of experiment: Time-of-flight (TOF) optophoretic testing of activated and unactivated T cells. It is filed as cell-based. Particulars: T cells activated with 0.5 μml PMA and 50 ng/ml ionomycin together, overnight, compared to unstimulated T cells (FIG. 46). The text has this: The system includes multiple, preferably three, detecting positions, 31, 32 and 33. The detecting positions 31, 32, 33, may be associated with detection of times, e.g., t1, t2, t3. The times may be absolute, relative or elapsed. The two outermost detecting positions, i.e., 31 and 33 in this example, are separated by a distance L. A representative length L when detecting biological particles would be substantially 200 microns or less. The difference between the first two detecting positions t1, t2, define a time interval T1. T1 may also be associated with a first detection zone corresponding to the motion of the particle 36 through the zone T1. The second and third detecting positions t2, t3, define a second detection zone T2. The second detection zone also corresponds to the time difference between t2, t3. In one preferred embodiment, the distance between t2 t3 is equal to the distance between t1 t2.
In operation, the cell or particle 36 flows from the inlet 22 through the channel 20 through the outlet 24. For biological detection purposes, representative particle speeds are from substantially 50 to substantially 200 microns per second. As the cell or particle 36 flows through the first detection zone T1, the time-of-flight through that zone is measured, that is the time it takes for the cell or particle 36 to move from position t1 to t2. An optical gradient 38 is disposed within zone T2. […]

For `C[S+](C)[O-]` [DMSO, dimethyl sulfoxide], the “TOF ratio t2/t1” value in the test with HL60 cells is on record as “lower TOF ratio”.
Turning to `CCCCCCCCCCCCCC(=O)O[C@@H]1[C@@H](C)[C@@]2(O)[C@@H](C=C(CO)C[C@]3(O)C(=O)C(C)=C[C@@H]23)[C@@H]2C(C)(C)[C@]12OC(C)=O` [PMA, Phorbol mystirate acetate], the “TOF ratio t2/t1” value in the test on T cells is “lower TOF ratio”.
Same read-out and setting: under `C[C@H](CCC(=O)O)C[C@H](C)C[C@H](C)C(=O)/C=C(\O)[C@H](C)C[C@H](C)C/C=C/[C@@H](C)[C@@H](O)[C@@H](C)[C@@H](O)C[C@@H]1CC[C@@](C)([C@H]2CC[C@@](C)([C@@H](C)O)O2)O1` [ionomycin] stands “lower TOF ratio”.
